Data published in US20240366701A1, “EXTRACT OF MYROTHAMNUS SP FOR PROMOTING HAIR GROWTH” (Lubrizol Advanced Materials, Inc., priority 2021, published 2024).

Assays:
[1] = test system: Human Epidermal Keratinocyte cells (HEK); experiment: In vitro proliferation assay on keratinocyte cells (PrestoBlue); format: cell-based; settings: test concentration 10 (%, v/v), 24 h, negative control = 100.00
Protocol: Human Epidermal Keratinocyte cells (HEK) are grown to a density of 4500 cells/cm^2 in keratinocyte growth medium at 37° C. in 5% CO2 humidified air during 7 days. After this time, they are split and then seeded for treatment.
HEK are seeded at a density of 70000 cells/mL of culture medium in 96-well Cell Carrier black plates (PerkinElmer) in culture medium. After 24 hours incubation at 37° C. in 5% CO2 humidified air, medium is removed and fresh culture medium with dilutions of the test products. Cells treated with medium alone are used as negative control. Epidermal Growth Factor (EGF) is used as a positive control. After 24 hours incubation, live and dead cells are quantified with PrestoBlue® Cell Viability Reagent.
HEK quantification is quantified by fluorescence by using cell permeable resazurin-based solution PrestoBlue® from Thermo Fisher Scientific.
Stock solution of Example 1 and 2 are assayed in 3 independent experiments including 4 replicates in each experiment.

[2] = test system: Human Umbilical Vein Endothelial cells (HUVEC); experiment: In vitro new blood vessel (tube-like structure) formation; format: cell-based; settings: 5 ng/ml, 4 h, respect basal condition
Text: Hair follicles get nourishment from blood flow in the skin having hair. Optimal irrigation of hair follicle increases its nourishment and stimulates the generation of new hair and improves hair growth and strength. Compounds able to generate new blood vessels in the hair follicle are good candidates for the cosmetic treatment of eyelash growth and strength. In vitro assessment of new blood vessels formation involves measurement of the ability of endothelial cells to form three-dimensional tube-like structures. Human Umbilical Vein Endothelial cells (HUVEC) mediate specific connections with extracellular matrix components generating differential forces which induces morphological changes and migration of HUVEC, leading to the formation of tube-like structures. The aim of this study is to evaluate the efficacy of the compound of the invention to generate new blood vessel tubes by means of measuring the ability of endothelial cells to form three-dimensional tube-like structures.
A 96 well plate is pre-coated with cold Extracellular Matrix Solution (Angiogenesis Assay kit, PromoKine) and incubated for 1 hour at 37° C. After the incubation, HUVEC cells are seeded in pre-coated wells at a density of 15,000 cells/well. Immediately, cells are treated with the stock solution of Example 2 dissolved in medium achieving a final well concentration of 0.5% (v/v). Vascular endothelial growth factor (VEGF) is used as positive control at a final well concentration of 5 ng/ml and cells treated with medium alone are used as a basal control. Cells are treated for 4 hours at 37° C. in 5% CO2 humidified air and then are stained with Staining Dye (Angiogenesis Assay kit, PromoKine) according to the manufacturer's protocol. Briefly, cells are washed and then Staining Dye solution was added. After a 30 minutes incubation at 37° C. in 5% CO2 humidified air, fluorescence images are captured using Operetta® confocal microscope (PerkinElmer, Inc) and new tubes formation is evaluated by ImageJ software.
New blood vessel tube formation is evaluated by the measurement of different parameters in each image acquired. […] Afterwards, the software quantifies more complex structures: • Segment length: number of pixels of each segment detected. • Master segment number: number of segments delimited by junctions without branch connection. • Master junction number: number of junctions which link at least three master segments. • Number of meshes: number of elements delimited by segments or master segments.
To consider an increase in new blood vessel tube formation, more than one of the parameters measured needs to be increased.
Results herein are the different measured parameters expressed as percentage normalized by basal condition.

| Substance | Cell growth MEAN normalized with respect to the negative control [1] | % of number of master junctions (Mean ± SEM) [2] [%] | % of number of master segments (Mean ± SEM) [2] [%] | % of number of meshes (Mean ± SEM) [2] [%] | % of total segment length (Mean ± SEM) [2] [%] |
| --- | --- | --- | --- | --- | --- |
| Positive control (EGF): Epidermal Growth Factor used as a positive control | 94.41 |  |  |  |  |
| VEGF |  | 183.1 ± 31.1 | 196.5 ± 36.5 | 288.6 ± 75.9 | 160.1 ± 21.9 |
